Key:
[1] = test system: patient with hemolytic PNH and infant; assay: Clinical tolerability and neonatal outcomes; type: in vivo, human
Procedure: (§1) Maternal and fetal outcomes were assessed throughout the third trimester and postpartum. Hematological response was evaluated using serial measurements of hemoglobin, hemolytic markers, and transfusion requirements. Complement levels/activity were measured using immunoturbidimetric assays for C3/C4 (Roche Diagnostics, Germany), and 50% hemolytic complement (CH50) by turbidimetric assay (Optilite, Binding Site, UK). Maternal clinical monitoring included evaluation for breakthrough hemolysis, thrombotic events, and other adverse events. Neonatal outcomes included gestational age at delivery, mode of delivery, birth weight, Apgar scores, and any complications identified during birth, hospitalization, or early follow‐up.

[2] = Pegcetacoplan concentration in maternal plasma (LC-MS/MS); type: in vivo, human; conditions: LLOQ 10 µg/mL
Procedure: (§2) Maternal blood samples were obtained during routine collections pre‐ and postpartum. Cord blood samples were obtained from the umbilical vein at the time of delivery. Breast milk samples were collected on postpartum Days 1 and 2. Quantitative analysis of pegcetacoplan concentrations in maternal plasma, umbilical cord blood plasma, and breast milk was performed by an independent, accredited laboratory (Q^2 Solutions BioSciences, USA) using a validated liquid chromatography‐tandem mass spectrometry method incorporating pegcetacoplan‐d22 as internal standard, with lower limits of quantification of 10 and 20 µg/mL for plasma and breast milk, respectively.

[3] = Pegcetacoplan concentration in umbilical cord blood plasma (placental transfer, LC-MS/MS); type: in vivo, human; conditions: umbilical vein at delivery, LLOQ 10 µg/mL
Procedure: as §2

[4] = Pegcetacoplan concentration in breast milk (lactational transfer, LC-MS/MS); type: in vivo, human
Procedure: as §2

[5] = test system: patient with hemolytic PNH; assay: Hematological response (hemoglobin, hemolytic markers, transfusion requirements) in pregnant patient with PNH; type: in vivo, human; conditions: for Hapto: normal 0.3–2.0; for ARC: normal 10–100; for Hb: normal 115–160; for Bili: normal ≤ 21; for LDH: normal ≤ 214
Procedure: Prophylactic‐dose dalteparin was prescribed. […] Informed consent was obtained for off‐label use in pregnancy, pharmacokinetic sampling, and case reporting. Institutional ethics board review exemption was granted for this single‐patient case report.
as §1

[6] = test system: complement C3, C4, CH50; assay: Complement levels/activity (C3/C4 immunoturbidimetric, CH50 turbidimetric) in patient; type: in vivo, human; conditions: for CH50: normal 42–95; for C4: normal 0.1–0.4; for C3: normal 0.9–1.8
Procedure: as §1

[7] = test system: hemoglobin response; conditions: plasma concentration; no reference given; cited from earlier work
Procedure: Pegcetacoplan was undetectable in all three cord blood samples (< 10 µg/mL), with no identifiable mass spectrometry peaks, indicating no measurable transplacental drug transfer. Pegcetacoplan was likewise not detected in breast milk, with concentrations below the lower limit of quantification (< 20 µg/mL, Table 2).

[8] = test system: cynomolgus monkeys; conditions: cynomolgus monkey, in vivo; cited from earlier work
Excerpt: In our case, pegcetacoplan was undetectable in all cord blood and breast milk samples, ...

[9] = later the same day following delivery
[10] = 3 + 5 w gestation, on pegcetacoplan before switch to eculizumab
[11] = 28 + 1 w, date of pegcetacoplan reinitiation
[12] = 30 + 3 w, pegcetacoplan overlapping with eculizumab
[13] = 33 w, pegcetacoplan, dose escalation
[14] = 35 + 6 w, pegcetacoplan 1080 mg three times weekly
[15] = 37 + 2 w, date of delivery, pegcetacoplan
[16] = 37 w, pegcetacoplan 1080 mg three times weekly
[17] = after reinitiation of pegcetacoplan at 28 weeks' gestation
[18] = before pregnancy, pegcetacoplan 1080 mg subcutaneous twice-weekly

With `CCO[C@H]1CCN(Cc2c(OC)cc(C)c3[nH]ccc23)[C@H](c2ccc(C(=O)O)cc2)C1` [iptacopan] the Tolerability ([1]; before pregnancy, nausea unresponsive to antiemetics) was “discontinued due to persistent nausea”.
With pegcetacoplan the “Concentration, maternal plasma, Sample 2” value [2, 9] was 625 µg/mL, the “Concentration, maternal plasma, Sample 3” value [2, 9] was 587 µg/mL and the “Concentration, maternal plasma, Sample 1” value ([2]; morning prior to scheduled cesarean delivery, pegcetacoplan 1080 mg s.c. three times weekly) was 719 µg/mL. The “Concentration, cord blood plasma, Sample 1” value [3] was “< LLOQ”, the “Concentration, cord blood plasma, Sample 2” value [3] was “< LLOQ” and the “Concentration, cord blood plasma, Sample 3” value [3] was “< LLOQ”. For the same compound, the “Concentration, breast milk, Sample 1” value ([4]; postpartum Day 1, LLOQ 20 µg/mL) was “< LLOQ”, the “Concentration, breast milk, Sample 2” value ([4]; postpartum Day 2, LLOQ 20 µg/mL) was “< LLOQ” and the Hapto [5, 10] was 1.85 g/L. It also gave an ARC [5, 10] of 8e+10 L⁻¹, a Hb [5, 10] of 109 g/L and a Bili [5, 10] of 7 µmol/L. The LDH [5, 10] was 153 U/L, the ARC [5, 11] was 1.73e+11 L⁻¹ and the Hb [5, 11] was 87 g/L. It also gave a Bili [5, 11] of 12 µmol/L, an LDH [5, 11] of 208 U/L and an ARC [5, 12] of 1.72e+11 L⁻¹. For the same compound, the Hb [5, 12] was 93 g/L, the Bili [5, 12] was 9 µmol/L and the LDH [5, 12] was 205 U/L. For the same compound, the Hapto [5, 13] was 0.89 g/L, the ARC [5, 13] was 1.74e+11 L⁻¹ and the Hb [5, 13] was 96 g/L. For the same compound, the Bili [5, 13] was 7 µmol/L, the LDH [5, 13] was 215 U/L and the Hapto [5, 14] was 0.84 g/L. For the same compound, the ARC [5, 14] was 1.78e+11 L⁻¹, the Hb [5, 14] was 103 g/L and the Bili [5, 14] was 4 µmol/L. For the same compound, the LDH [5, 14] was 208 U/L, the ARC [5, 15] was 1.2e+11 L⁻¹ and the Hb [5, 15] was 102 g/L. For the same compound, the Bili [5, 15] was 3 µmol/L, the LDH [5, 15] was 210 U/L and the Hapto [5, 16] was 0.1 g/L. It also gave an ARC [5, 16] of 1.29e+11 L⁻¹, a Hb [5, 16] of 103 g/L and a Bili [5, 16] of 3 µmol/L. It also gave an LDH [5, 16] of 231 U/L, an ARC ([5]; PP 6 w, pegcetacoplan) of 1.46e+11 L⁻¹ and a Hb ([5]; PP 6 w, pegcetacoplan) of 107 g/L. For the same compound, the Bili ([5]; PP 6 w, pegcetacoplan) was 4 µmol/L, the LDH ([5]; PP 6 w, pegcetacoplan) was 203 U/L and the ARC ([5]; PP 1 d, pegcetacoplan) was 1.03e+11 L⁻¹. For the same compound, the Hb ([5]; PP 1 d, pegcetacoplan) was 88 g/L, the Bili ([5]; PP 1 d, pegcetacoplan) was 3 µmol/L and the LDH ([5]; PP 1 d, pegcetacoplan) was 378 U/L. The ARC ([5]; PP 2 d, pegcetacoplan) was 1.07e+11 L⁻¹, the Hb ([5]; PP 2 d, pegcetacoplan) was 86 g/L and the Bili ([5]; PP 2 d, pegcetacoplan) was 3 µmol/L. The LDH ([5]; PP 2 d, pegcetacoplan) was 351 U/L, the ARC ([5]; PP 3 d, pegcetacoplan) was 1.06e+11 L⁻¹ and the Hb ([5]; PP 3 d, pegcetacoplan) was 86 g/L. The Bili ([5]; PP 3 d, pegcetacoplan) was 3 µmol/L, the LDH ([5]; PP 3 d, pegcetacoplan) was 327 U/L and the Hapto ([5]; PP 10 d, pegcetacoplan) was 1.34 g/L. The ARC ([5]; PP 10 d, pegcetacoplan) was 9.7e+10 L⁻¹, the Hb ([5]; PP 10 d, pegcetacoplan) was 89 g/L and the Bili ([5]; PP 10 d, pegcetacoplan) was 4 µmol/L. The LDH ([5]; PP 10 d, pegcetacoplan) was 280 U/L, the “Hemoglobin (range) during the third trimester” value [5, 17] was 92 to 103 g/L and the Transfusions after resumption [5, 17] was “no transfusions required”. The Hemoglobin stabilization [5, 18] was “approximately 110 g/L”, the Transfusion status [5, 18] was “achieved transfusion independence” and the CH50 [6, 13] was 17 U/mL. The C4 [6, 14] was 0.43 g/L, the C3 [6, 14] was 4.9 g/L and the CH50 [6, 14] was 102 U/mL. The C4 [6, 15] was 0.37 g/L, the C3 [6, 15] was 4.7 g/L and the CH50 [6, 15] was 88 U/mL. The CH50 [6, 16] was 82 U/mL, the CH50 ([6]; PP 6 w, pegcetacoplan) was 99 U/mL and the C4 ([6]; PP 1 d, pegcetacoplan) was 0.34 g/L. For the same compound, the C3 ([6]; PP 1 d, pegcetacoplan) was 4.33 g/L, the CH50 ([6]; PP 1 d, pegcetacoplan) was 86.0 U/mL and the C4 ([6]; PP 2 d, pegcetacoplan) was 0.35 g/L. The C3 ([6]; PP 2 d, pegcetacoplan) was 4.5 g/L, the CH50 ([6]; PP 2 d, pegcetacoplan) was greater than 103 U/mL and the C4 ([6]; PP 3 d, pegcetacoplan) was 0.36 g/L. The C3 ([6]; PP 3 d, pegcetacoplan) was 4.44 g/L, the CH50 ([6]; PP 3 d, pegcetacoplan) was 97 U/mL and the Infant complications ([1]; infant exposed in partial first and full third trimester, 10-month follow-up) was “no complications observed”. For the same compound, the “EC99, effective concentration for maximum hemoglobin response” value [7] was 597 µg/mL, the Fetal loss [8] was “increased fetal loss” and the “Maternal toxicity or teratogenicity” value [8] was “no evidence”. The “Placental and breast milk transfer” value [8] was “minimal”.
